Assay results as given in patent EP0178388A1, “Quinolinecarboxylic acid derivatives” (KYORIN PHARMACEUTICAL CO., LTD., priority 1984, dated 1986).
Where a name gives a salt, the structure may show the parent alone.

Key:
Assay in all cases: In vitro antibacterial activity, MIC (standard strain)
Format in all cases: cell-based
[1] = system: Proteus vulgaris IFO 3167; details: IFO3167; Proteus vulgaris IFO 3167, 10^6 cells/ml, standard strain; read-out: MIC
S. faecalis IID 682 = details: Enterococcus faecalis, IID682, S. faecalis IID 682, 10^6 cells/ml
[2] = system: Salmonella enteritidis IID 604; details: Salmonella enterica; Salmonella enteritidis IID 604, 10^6 cells/ml, standard strain; read-out: MIC
S. epidermidis IID 866 = details: Staphylococcus epidermidis, IID866, S. epidermidis IID 866, 10^6 cells/ml
[3] = system: Escherichia coli NIHJ JC-2; details: NIHJJC2, Escherichia coli NIHJ JC-2, 10^6 cells/ml
[4] = system: Citrobacter freundii IID 976; details: IID976; Citrobacter freundii IID 976, 10^6 cells/ml, standard strain; read-out: MIC
[5] = system: Pseudomonas aeruginosa V-1; details: V1; Pseudomonas aeruginosa V-1, 10^6 cells/ml, standard strain; read-out: MIC
[6] = system: Klebsiella pneumoniae I-220S; details: I220S; Klebsiella pneumoniae I-220S, 10^6 cells/ml, standard strain; read-out: MIC
[7] = system: Yersinia enterocolitica IID 981; details: IID981; Yersinia enterocolitica IID 981, 10^6 cells/ml, standard strain; read-out: MIC
S. pyogenes IID 692 = details: Streptococcus pyogenes, IID692, S. pyogenes IID 692, 10^6 cells/ml
[8] = system: Acinetobacter anitratus IID 876; details: Acinetobacter calcoaceticus, IID876; Acinetobacter anitratus IID 876, 10^6 cells/ml, standard strain; read-out: MIC
[9] = system: Serratia marcescens IID 618; details: IID618, Serratia marcescens IID 618, 10^6 cells/ml, read-out: MIC
E. coli ATCC 10536 = details: Escherichia coli, ATCC10536; E. coli ATCC 10536, 10^6 cells/ml, standard strain; read-out: MIC
S. pneumoniae IID 552 = details: Streptococcus pneumoniae, IID552, S. pneumoniae IID 552, 10^6 cells/ml
[10] = system: Staphylococcus aureus 209 P; details: 10^6 cells/ml, read-out: MIC
K. pneumoniae KY(GN)6445 = details: Klebsiella pneumoniae; K. pneumoniae KY(GN)6445, 10^6 cells/ml, standard strain; read-out: MIC
Shigella sonnei IID 969 = details: IID969, Shigella sonnei IID 969, 10^6 cells/ml
Protocol: The in vitro antibacterial activity has been investigated, the minimun inhibitory concentration (MIC) was determined in accordance with the method recommended by Japan Society of Chemotherapy.

[11] = system: Alcaligenes faecalis 0114002; details: Alcaligenes faecalis 0114002, 10^6 cells/ml
P. morganii IID 602 = details: Morganella morganii, IID602; P. morganii IID 602, 10^6 cells/ml, standard strain; read-out: MIC
[12] = system: Bacillus subtilis PCI 219; details: PCI219; Bacillus subtilis PCI 219, 10^6 cells/ml, standard strain; read-out: MIC
P. aeruginosa IFO 12689 = details: Pseudomonas aeruginosa, IFO12689, P. aeruginosa IFO 12689, 10^6 cells/ml, standard strain; read-out: MIC
[13] = system: Enterobacter cloacae IID 977; details: IID977, Enterobacter cloacae IID 977, 10^6 cells/ml
[14] = system: Streptococcus pyogenes S-8; details: S8, Streptococcus pyogenes S-8, 10^6 cells/ml
[15] = system: S. aureus IID 670 (Terajima); details: Staphylococcus aureus, IID670, 10^6 cells/ml
P. mirabilis IID 994 = details: Proteus mirabilis, IID994, P. mirabilis IID 994, 10^6 cells/ml

Measured: MIC

CC1CN(c2c(F)cc3c(=O)c(C(=O)O)cn(C4CC4)c3c2Cl)CC(C)N1 (stereo not shown) [Example 6, 8-Chloro-1-cyclopropyl-6-fluoro-1,4-dihydro-7-(3,5-dimethyl-1-piperazinyl)-4-oxoquinoline-3-carboxylic acid and its hydrochloride]
0.1 µg/mL: [2] | [4] | [8] | P. mirabilis IID 994
0.78 µg/mL: S. faecalis IID 682 | S. pyogenes IID 692 | S. pneumoniae IID 552 | [11]
0.025 µg/mL: E. coli ATCC 10536
0.05 µg/mL: [1] | [3] | K. pneumoniae KY(GN)6445 | Shigella sonnei IID 969 | [12]
1.56 µg/mL: [5]
0.39 µg/mL: [14]
3.13 µg/mL: P. aeruginosa IFO 12689
0.2 µg/mL: all other assays above
